Our source for the TGI values is PubChem BioAssay (NCI).

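Five compound concentrations were applied to cells in 96-well plates for 48 hours; endpoints were derived by simple linear interpolation of the resulting dose-response curve. At the TGI there is no net growth.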

Assay in all cases: growth of human tumour cells (NCI), 48 h
Experiment [1] deals with SK-OV-3 ovarian.
Experiment [2] concerns NCI/ADR-RES ovarian.
The subject of experiment [3] is MDA-N.
Experiment [4] deals with CAKI-1 renal.
The subject of experiment [5] is MDA-MB-231 breast.
The subject of experiment [6] is SF-539 CNS.
Experiment [7] relates to DU-145 prostate.
Experiment [8] deals with SK-MEL-28 melanoma.
In experiment [9] the test system is NCI-H460 lung.
Experiment [10] has as its system 786-0 renal.
For experiment [11], the system named is RXF 393 renal.
The test system of experiment [12] is RPMI-8226 leukemia.
Experiment [13] deals with KM12 colon.
The test system of experiment [14] is T-47D breast.
Experiment [15] deals with HCT-116 colon.
The test system of experiment [16] is SK-MEL-2 melanoma.
Experiment [17] deals with OVCAR-4 ovarian.
Experiment [18] has as its system MDA-MB-435.
Experiment [19] concerns HOP-92 NSCLC.
Experiment [20] relates to K-562 leukemia.

Turning to `CCC/C(Cl)=N\OC(=O)Nc1cccc(C(F)(F)F)c1`, the TGI in experiment [1] is 18 µM; in [2] it was above 59.4 µM; in [3], 31.9 µM; in experiment [4] it was 33.1 µM; in [5] it was 33.8 µM; in experiment [6] it was 35.1 µM. The TGI in experiment [7] is 17.8 µM; in [8], 37.6 µM; in experiment [9] it was 35.8 µM; in [10] it was 29.5 µM; in experiment [11], 33.8 µM; in experiment [12], 25.8 µM. The TGI was determined as 33.3 µM in experiment [13]; 55.3 µM in experiment [14]; 34.9 µM in experiment [15]; 31.4 µM in experiment [16]; 38.5 µM in experiment [17].
On to `Cc1[nH]n(C(=N)N)c(=O)c1CCO`, for which the TGI was above 100 µM in [1]; 8.93 µM in experiment [2]; above 100 µM in [3]; above 100 µM in experiment [4]; above 100 µM in experiment [5]; above 100 µM in experiment [6]. The TGI in [7] is above 100 µM; in experiment [8] it was above 100 µM; in experiment [9], above 100 µM; in experiment [18], above 100 µM; in experiment [10], 3.08 µM; in experiment [19] it was above 100 µM. Moreover, the TGI in [20], in experiment [11], in experiment [15], in experiment [16] and in experiment [17] was above 100 µM in each case.
Take `O=C(O)CCNC(=O)c1cc(N(CCBr)CCBr)c([N+](=O)[O-])cc1[N+](=O)[O-]`: the TGI in experiment [1], in experiment [2], in experiment [3], in experiment [4], in experiment [5] and in [8] was above 100 µM in each case. Also, the TGI in experiment [9], in [18], in experiment [10], in experiment [19], in experiment [20] and in [12] was above 100 µM in each case. The TGI in experiment [13], in experiment [15], in [16] and in [17] was above 100 µM throughout.
Take `CCN1C(=O)/C(=C2\SC(c3ccccc3)(c3ccccc3)c3ccccc32)SC1=S`: the TGI in experiment [1], in experiment [2], in experiment [3], in [5], in experiment [6] and in experiment [7] was above 100 µM in each case. In addition, the TGI in experiment [8] is above 100 µM; in experiment [9], above 100 µM; in experiment [18], above 100 µM; in experiment [10] it was above 100 µM; in experiment [19], 82.4 µM; in [20], above 100 µM. In addition, the TGI in experiment [11], in [12], in experiment [13], in experiment [15] and in [17] was above 100 µM each time.
As for `CC1(C)OCC(C2OC(OC(=O)c3ccc([N+](=O)[O-])cc3)C3OC(C)(C)OC23)O1` (stereo not given), the TGI in [1], in experiment [2], in [3], in [4], in [5] and in experiment [6] was above 100 µM in each case. The TGI in experiment [7], in experiment [8], in experiment [9], in [18], in [10] and in [20] was above 100 µM throughout. For the same compound, the TGI in [11], in [12], in experiment [13], in [15], in [16] and in experiment [17] was above 100 µM throughout.
For `Cc1ccc(S(=O)(=O)N2c3ccccc3[C@H]3CCC=C[C@H]32)cc1`, the TGI in experiment [1] is 28.6 µM; in [3] it was above 100 µM; in experiment [4], above 100 µM; in [5] it was above 100 µM; in experiment [6], 34 µM; in [7] it was above 100 µM. For the same compound, the TGI in [8] is above 96.1 µM; in experiment [9], above 64.7 µM; in experiment [10], above 100 µM; in experiment [19] it was 35.4 µM; in [20], above 81.3 µM; in [11], 19 µM. The TGI in [12] was 43 µM; in [13], 45.7 µM; in experiment [14] it was above 100 µM; in experiment [15], 19.6 µM; in [16], 39.2 µM; in experiment [17], above 100 µM.
On to `COc1ccc(/C=C/C(=N/NC(=O)N/N=C(/C=C/c2ccc(OC)cc2)C(C)(C)CN2CCCCC2)C(C)(C)CN2CCCCC2)cc1`, for which the TGI is 3.49 µM in [1]; 4.33 µM in experiment [2]; 3.06 µM in experiment [3]; 4.33 µM in [4]; 4.11 µM in experiment [6]; above 10 µM in experiment [7]. Besides, the TGI was found to be 2.92 µM in [8]; 3.82 µM in experiment [9]; 3.15 µM in experiment [10]; 3.08 µM in [19]; 1.89 µM in experiment [20]; 2.72 µM in experiment [11]. The TGI in experiment [12] was 4.23 µM; in experiment [13], 3.27 µM; in experiment [14], 4.1 µM; in experiment [15], 2.6 µM; in experiment [16] it was 3.1 µM; in [17], 3.96 µM.
`O=C1C(Cl)C2(CC(/C=C/c3ccccc3O)=NN2c2cccc(S(=O)(=O)O)c2)N1c1nc2ccccc2s1` (stereo not given): the TGI in experiment [2] is above 100 µM; in [3], 47 µM; in experiment [5], 74.6 µM; in experiment [6], 36.5 µM; in experiment [8], 71.2 µM; in [9], 34.6 µM. Moreover, the TGI was 31.1 µM in experiment [18]; 30 µM in [10]; 37 µM in experiment [19]; 86.1 µM in [20]; above 100 µM in [11]; 35.5 µM in experiment [12]. The TGI was 30.3 µM in experiment [13]; 37.4 µM in [14]; 31 µM in experiment [15]; 40.8 µM in experiment [16]; 27.4 µM in experiment [17].
In the case of `COC(=O)C1(C(=O)OC)N=C(C)OC1c1ccccn1` (stereo not given), the TGI in experiment [1], in [2], in experiment [3], in experiment [4], in experiment [7] and in experiment [8] was above 100 µM each time. Besides, the TGI in experiment [9], in experiment [18], in [10], in experiment [19], in experiment [20] and in [11] was above 100 µM in each case. Moreover, the TGI in experiment [12], in experiment [13], in experiment [14], in experiment [15], in experiment [16] and in [17] was above 100 µM throughout.
For the compound `O=C(COc1ccc(OCC(=O)NNC2=NC(c3cc(F)c(Cl)cc3Cl)CS2)c(Cl)c1)NNC1=NC(c2cc(F)c(Cl)cc2Cl)CS1` (stereo not given), the TGI is above 100 µM in [1]; above 100 µM in experiment [2]; 92.9 µM in [3]; 54.5 µM in experiment [5]; 64.5 µM in experiment [6]; 59.8 µM in experiment [7]. In addition, the TGI is 86.9 µM in experiment [8]; above 100 µM in experiment [9]; 44.6 µM in [18]; above 100 µM in experiment [10]; above 100 µM in experiment [19]; above 100 µM in experiment [20]. Further, the TGI was 60.9 µM in experiment [11]; above 100 µM in [12]; above 100 µM in experiment [13]; above 100 µM in experiment [15]; above 100 µM in experiment [16]; 40.4 µM in experiment [17].
As for `CN(C)c1ccc(-c2c(C#N)c(O)n(NS(=O)(=O)c3ccccc3)c(=O)c2C#N)cc1`, the TGI in experiment [1] was 37 µM; in [2], above 100 µM; in [3], above 100 µM; in [4] it was above 100 µM; in [5], above 100 µM; in [6], above 100 µM. Also, the TGI in [8], in experiment [9], in [18], in experiment [10], in experiment [19] and in experiment [20] was above 100 µM in each case. The TGI in experiment [11], in experiment [12], in [13], in [15], in experiment [16] and in [17] was above 100 µM in each case.
Consider `O=C(Nc1nc(C23CC4CC(CC(C4)C2)C3)cs1)c1cc2cc(Cl)ccc2oc1=O`, for which the TGI in experiment [2], in [3], in experiment [4], in experiment [5], in [6] and in experiment [7] was above 100 µM throughout. The TGI in experiment [8], in [9], in experiment [18], in experiment [10], in [19] and in experiment [20] was above 100 µM throughout. Also, the TGI in experiment [11], in experiment [12], in experiment [13], in experiment [15] and in experiment [17] was above 100 µM in each case.
Regarding `CCOC(=O)CSc1nnc(CSc2nc(-c3ccccc3)c(-c3ccccc3)[nH]2)n1-c1ccccc1`, the TGI in experiment [1] is 43.8 µM; in [2] it was above 100 µM; in [3], above 100 µM; in experiment [5], above 100 µM; in experiment [6] it was 41.6 µM; in [7] it was 30.1 µM. The TGI in [8] is above 100 µM; in experiment [9] it was above 100 µM; in experiment [10], above 62.9 µM; in experiment [19], above 100 µM; in experiment [20], above 100 µM; in experiment [11], 39.5 µM. Besides, the TGI in [12] is above 100 µM; in experiment [13], above 100 µM; in experiment [14], 89.7 µM; in experiment [15], above 100 µM; in experiment [16] it was above 31.6 µM; in experiment [17] it was 48.3 µM.
As for `Cc1ccc(Nc2[nH]c(=O)[nH]c(=O)c2C)cc1Cl`, the TGI in [1], in experiment [2], in experiment [3], in experiment [4], in experiment [5] and in [6] was above 100 µM in each case. For the same compound, the TGI in experiment [8], in experiment [9], in experiment [18], in [10], in experiment [19] and in experiment [20] was above 100 µM throughout. Also, the TGI in experiment [11], in [12], in [13], in experiment [14], in experiment [15] and in experiment [16] was above 100 µM throughout. This compound displayed a TGI in experiment [17] above 100 µM.
With `Cc1ccc(N=C2S/C(=C3/CCC=C3N3CCOCC3)N(c3ccc(Cl)cc3)C2=Nc2ccc(C)cc2)cc1`, the TGI in experiment [3], in experiment [5], in experiment [8], in experiment [9], in experiment [10] and in experiment [19] was above 100 µM each time. The TGI in experiment [20], in [11], in experiment [12], in [13], in experiment [14] and in experiment [15] was above 100 µM throughout. The compound further had a TGI in experiment [16] above 100 µM.
In the case of `NNC1=N/C(=C\c2ccco2)C(=O)N1`, the TGI in experiment [1], in [2], in experiment [3], in experiment [4], in experiment [5] and in [6] was above 100 µM each time. Also, the TGI in [8], in experiment [18], in [10], in experiment [20], in experiment [12] and in [13] was above 100 µM each time. Besides, the TGI in [14], in [15], in [16] and in experiment [17] was above 100 µM throughout.
